Patent US12049450B2, “Pyridyloxy-carboxylate derivative and preparation method therefor, herbicidal composition, and use” (Qingdao Kingagroot Chemical Compound Co., Ltd., priority 2018, dated 2024)

Columns and labels:
Experiment in all cases: Post-emergence test experiment (greenhouse pot, spray at 2-3 leaf stage)
Type in all cases: in vivo
Conditions in all cases: 1000 g/ha; post-emergence spray at 2-3 leaf stage; assessed after 3 weeks; fresh weight inhibition rate
Monochoria vaginalis = system: Monochoria vaginalis
Outline: (§1)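 Activity graded levels 0-5 by fresh-weight inhibition (level 5 above 85%, level 0 below 5%), assessed 3 weeks after treatment. Plants grown in greenhouse pots were sprayed post-emergence at 2-3 leaves using acetone/tween-80 solutions with methyl oleate synergist (1.5 L/ha).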

Echinochloa crusgalli = system: Echinochloa crusgalli
Outline: as §1

Galium spurium = system: Galium spurium
Outline: as §1

Abutilon theophrasti = system: Abutilon theophrasti
Outline: as §1

Digitaria sanguinalis = system: Digitaria sanguinalis
Outline: as §1

Structure (SMILES)	Activity level (growth inhibition rate) Monochoria Vaginalis (Monochoria vaginalis)	Activity level (growth inhibition rate) Echinochloa crusgalli (Echinochloa crusgalli)	Activity level (growth inhibition rate) Galium spurium (Galium spurium)	Activity level (growth inhibition rate) Abutilon theophrasti (Abutilon theophrasti)	Activity level (growth inhibition rate) Digitaria sanguinalis (Digitaria sanguinalis)
CC(Oc1nc(F)c(Cl)c(N)c1Cl)C(=O)SCCc1ncsn1 (stereo not shown) [Compound 165]	5 (Level 5: the growth inhibition rate is greater than 85%)	5 (Level 5: the growth inhibition rate is greater than 85%)	5 (Level 5: the growth inhibition rate is greater than 85%)	5 (Level 5: the growth inhibition rate is greater than 85%)	5 (Level 5: the growth inhibition rate is greater than 85%)
CC(Oc1nc(F)c(Cl)c(N)c1Cl)C(=O)OCc1cnns1 (stereo not shown) [Compound 166]	5 (Level 5: the growth inhibition rate is greater than 85%)	5 (Level 5: the growth inhibition rate is greater than 85%)	5 (Level 5: the growth inhibition rate is greater than 85%)	5 (Level 5: the growth inhibition rate is greater than 85%)	5 (Level 5: the growth inhibition rate is greater than 85%)
CC(Oc1nc(F)c(Cl)c(N)c1Cl)C(=O)OCc1ncns1 (stereo not shown) [Compound 167]	5 (Level 5: the growth inhibition rate is greater than 85%)	5 (Level 5: the growth inhibition rate is greater than 85%)	5 (Level 5: the growth inhibition rate is greater than 85%)	5 (Level 5: the growth inhibition rate is greater than 85%)	5 (Level 5: the growth inhibition rate is greater than 85%)
CC(Oc1nc(F)c(Cl)c(N)c1Cl)C(=O)SCc1csnn1 (stereo not shown) [Compound 168]	5 (Level 5: the growth inhibition rate is greater than 85%)	5 (Level 5: the growth inhibition rate is greater than 85%)	5 (Level 5: the growth inhibition rate is greater than 85%)	5 (Level 5: the growth inhibition rate is greater than 85%)	5 (Level 5: the growth inhibition rate is greater than 85%)
CC(Oc1nc(F)c(Cl)c(N)c1Cl)C(=O)OCC1C=C2C=CC=CC2N1 (stereo not shown) [Compound 169]	5 (Level 5: the growth inhibition rate is greater than 85%)	5 (Level 5: the growth inhibition rate is greater than 85%)	5 (Level 5: the growth inhibition rate is greater than 85%)	5 (Level 5: the growth inhibition rate is greater than 85%)	5 (Level 5: the growth inhibition rate is greater than 85%)
CC(Oc1nc(F)c(Cl)c(N)c1Cl)C(=O)SCc1nc2ccccc2[nH]1 (stereo not shown) [Compound 170]	5 (Level 5: the growth inhibition rate is greater than 85%)	5 (Level 5: the growth inhibition rate is greater than 85%)	5 (Level 5: the growth inhibition rate is greater than 85%)	5 (Level 5: the growth inhibition rate is greater than 85%)	5 (Level 5: the growth inhibition rate is greater than 85%)
CC(Oc1nc(F)c(Cl)c(N)c1Cl)C(=O)OCc1ccc2c(ccn2C)c1 (stereo not shown) [Compound 171]	5 (Level 5: the growth inhibition rate is greater than 85%)	5 (Level 5: the growth inhibition rate is greater than 85%)	5 (Level 5: the growth inhibition rate is greater than 85%)	5 (Level 5: the growth inhibition rate is greater than 85%)	5 (Level 5: the growth inhibition rate is greater than 85%)
CCn1cnc2ccc(COC(=O)C(C)Oc3nc(F)c(Cl)c(N)c3Cl)cc21 (stereo not shown) [Compound 172]	5 (Level 5: the growth inhibition rate is greater than 85%)	5 (Level 5: the growth inhibition rate is greater than 85%)	5 (Level 5: the growth inhibition rate is greater than 85%)	5 (Level 5: the growth inhibition rate is greater than 85%)	5 (Level 5: the growth inhibition rate is greater than 85%)
CC(Oc1nc(F)c(Cl)c(N)c1Cl)C(=O)OCc1cc2ccccc2o1 (stereo not shown) [Compound 173]	5 (Level 5: the growth inhibition rate is greater than 85%)	5 (Level 5: the growth inhibition rate is greater than 85%)	5 (Level 5: the growth inhibition rate is greater than 85%)	5 (Level 5: the growth inhibition rate is greater than 85%)	5 (Level 5: the growth inhibition rate is greater than 85%)
CC(Oc1nc(F)c(Cl)c(N)c1Cl)C(=O)SCc1ccc2ncoc2c1 (stereo not shown) [Compound 174]	5 (Level 5: the growth inhibition rate is greater than 85%)	5 (Level 5: the growth inhibition rate is greater than 85%)	5 (Level 5: the growth inhibition rate is greater than 85%)	5 (Level 5: the growth inhibition rate is greater than 85%)	5 (Level 5: the growth inhibition rate is greater than 85%)
Cc1nc2cc(COC(=O)C(C)Oc3nc(F)c(Cl)c(N)c3Cl)ccc2o1 (stereo not shown) [Compound 175]	5 (Level 5: the growth inhibition rate is greater than 85%)	5 (Level 5: the growth inhibition rate is greater than 85%)	5 (Level 5: the growth inhibition rate is greater than 85%)	5 (Level 5: the growth inhibition rate is greater than 85%)	5 (Level 5: the growth inhibition rate is greater than 85%)
CC(Oc1nc(F)c(Cl)c(N)c1Cl)C(=O)OCc1ccc2c(c1)OCO2 (stereo not shown) [Compound 176]	5 (Level 5: the growth inhibition rate is greater than 85%)	5 (Level 5: the growth inhibition rate is greater than 85%)	5 (Level 5: the growth inhibition rate is greater than 85%)	5 (Level 5: the growth inhibition rate is greater than 85%)	5 (Level 5: the growth inhibition rate is greater than 85%)
CC(Oc1nc(F)c(Cl)c(N)c1Cl)C(=O)OCc1cc2ccccc2s1 (stereo not shown) [Compound 177]	5 (Level 5: the growth inhibition rate is greater than 85%)	5 (Level 5: the growth inhibition rate is greater than 85%)	5 (Level 5: the growth inhibition rate is greater than 85%)	5 (Level 5: the growth inhibition rate is greater than 85%)	5 (Level 5: the growth inhibition rate is greater than 85%)
CC(Oc1nc(F)c(Cl)c(N)c1Cl)C(=O)OCc1nc2ccccc2s1 (stereo not shown) [Compound 178]	5 (Level 5: the growth inhibition rate is greater than 85%)	5 (Level 5: the growth inhibition rate is greater than 85%)	5 (Level 5: the growth inhibition rate is greater than 85%)	5 (Level 5: the growth inhibition rate is greater than 85%)	5 (Level 5: the growth inhibition rate is greater than 85%)
CC(Oc1nc(F)c(Cl)c(N)c1Cl)C(=O)SCCc1ccc2ccsc2c1 (stereo not shown) [Compound 179]	5 (Level 5: the growth inhibition rate is greater than 85%)	5 (Level 5: the growth inhibition rate is greater than 85%)	5 (Level 5: the growth inhibition rate is greater than 85%)	5 (Level 5: the growth inhibition rate is greater than 85%)	5 (Level 5: the growth inhibition rate is greater than 85%)
CC(Oc1nc(F)c(Cl)c(N)c1Cl)C(=O)OCc1ccc2ncsc2c1 (stereo not shown) [Compound 180]	5 (Level 5: the growth inhibition rate is greater than 85%)	5 (Level 5: the growth inhibition rate is greater than 85%)	5 (Level 5: the growth inhibition rate is greater than 85%)	5 (Level 5: the growth inhibition rate is greater than 85%)	5 (Level 5: the growth inhibition rate is greater than 85%)
CC(Oc1nc(F)c(Cl)c(N)c1Cl)C(=O)OCc1ccc2ccccc2c1 (stereo not shown) [Compound 181]	5 (Level 5: the growth inhibition rate is greater than 85%)	5 (Level 5: the growth inhibition rate is greater than 85%)	5 (Level 5: the growth inhibition rate is greater than 85%)	5 (Level 5: the growth inhibition rate is greater than 85%)	5 (Level 5: the growth inhibition rate is greater than 85%)
